Assay results reported in patent US20080260838A1 (priority 2003, published 2008).

What was measured:
[1] = system: Rat pancreatic epithelial (ARIP) cells; assay: Staurosporine-induced cell death in ARIP cells (Cell Titer-Glo); format: cell-based; settings: GLP-1 up to 10 nM, 5 μM staurosporine […]
Description: Cell viability was evaluated using Cell Titer-Glo™ (Promega, Madison, Wis.).
The formulations were analyzed for their ability to inhibit staurosporine-induced cell death in ARIP cells.
All of the results shown are averages of triplicate runs.

[2] = system: Rat pancreatic epithelial (ARIP) cells; assay: Apoptosis by FACS analysis using Annexin V staining; format: cell-based; settings: 15 nM GLP-1, 1 μM staurosporine 4 hrs
Description: Annexin V staining is a useful tool in detecting apoptotic cells and is well known to those of skill in the art. Binding of Annexin V to the cell membrane, allows for the analysis of changes in […] (PS) asymmetry before morphological changes associated with apoptosis occurred and before membrane integrity is lost.

β-cell mass = assay: Effect on β-cell mass, cells treated at day 1, 3 and 5; format: cell-based; settings: cells treated with GLP-1/FDKP versus untreated cells
DPP-IV = molecular target: T1, DPP-IV (Rattus norvegicus, UniProt P14740); assay: DPP-IV activity, cleavage of luminescent Gly-Pro substrate in bronchial lung lavage fluid; format: biochemical; settings: aprotinin 1, 2, 3, 4 and 5 TIU/ml
T1 construct: from tissue; host or cells: rat bronchial lung lavage fluid
T1 sequence (P14740 whole entry): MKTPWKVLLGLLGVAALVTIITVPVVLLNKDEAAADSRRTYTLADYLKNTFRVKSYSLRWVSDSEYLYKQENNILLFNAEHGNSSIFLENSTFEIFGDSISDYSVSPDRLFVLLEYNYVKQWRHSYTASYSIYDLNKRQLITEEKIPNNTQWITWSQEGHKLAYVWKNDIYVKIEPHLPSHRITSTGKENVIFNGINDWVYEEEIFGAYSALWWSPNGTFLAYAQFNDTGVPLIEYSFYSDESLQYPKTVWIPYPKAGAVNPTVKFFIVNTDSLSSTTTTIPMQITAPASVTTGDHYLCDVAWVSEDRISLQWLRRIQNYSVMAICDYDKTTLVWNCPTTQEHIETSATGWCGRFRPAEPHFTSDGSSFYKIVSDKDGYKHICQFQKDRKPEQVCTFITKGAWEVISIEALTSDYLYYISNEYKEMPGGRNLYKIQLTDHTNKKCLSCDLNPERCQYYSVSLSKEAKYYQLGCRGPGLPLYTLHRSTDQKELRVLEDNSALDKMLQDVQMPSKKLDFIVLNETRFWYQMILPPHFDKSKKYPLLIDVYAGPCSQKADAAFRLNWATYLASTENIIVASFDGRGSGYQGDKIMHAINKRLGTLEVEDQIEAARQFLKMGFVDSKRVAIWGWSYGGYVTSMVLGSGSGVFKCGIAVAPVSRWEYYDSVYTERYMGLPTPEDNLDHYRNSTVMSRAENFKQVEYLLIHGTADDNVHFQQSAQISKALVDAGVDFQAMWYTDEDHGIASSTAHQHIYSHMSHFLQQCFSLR
Description: Aprotinin, a naturally occurring serine protease inhibitor, which is known in the art to inhibit protein degradation was added to the samples post collection at 1, 2, 3, 4 and 5 TIU/ml. DPP-IV activity was then measured by detecting the cleavage of a luminescent substrate containing the DPP-IV recognized Gly-Pro sequence. Bronchial lung lavage fluid was incubated with proluminescent substrate for 30 min and cleavage product was detected by luminescence.

Substance	percent of cell death [1]	inhibition of staurosporine induced apoptosis [2]	increase in β-cell mass (β-cell mass)	inhibition of DPP-IV activity (DPP-IV)
GLP-1	decrease in the percent of cell death	about 40%	up to 2 fold	–
aprotinin	–	–	–	increase in inhibition of DPP-IV activity
